From patent US20030129134A1, “Method of monitoring neuroprotective treatment” (Pfizer Inc., priority 2001, published 2003)

System: S-100b
Assay: Serum S-100b levels in patients with severe contusive-type head trauma treated by constant infusion
Type: in vivo, human
Conditions: constant infusion for 72 hours, serum samples out to 120 hours post-infusion, luminometric immunoassay
Excerpt: Levels of S-100b can be measured in a biological sample of a patient's blood or CSF using a commercially available immunoradiometric assay or luminometric immunoassay kit such as those available from Byk-Sangtec Diagnostica GmbH & Co. (Dietzenbach, Germany), which are based on a two-site immunoluminometric sandwich assay using the commercially available LIAISON® Sangtec® S-100 assay system. In this assay system, paramagnetic particles are coated with two anti-S100b monoclonal antibodies directed to different epitopes, and a secondary anti-S100b monoclonal antibody labeled with an isoluminol derivative is provided as detection antibody. The paramagnetic particles, assay buffer, and biological sample are first incubated and unbound material is removed by a wash cycle. […] Subsequently, starter reagents that activate the chemoluminscent reaction are added and the S-100b concentration is determined via the chemiluminescence reaction induced by the previously added reagents. The light signal is measured in relative light units (RLUs) and is directly proportional to the amount of S-100b protein in the sample. […]
S-100b levels were measured in the serum of patients suffering from severe contusive-type head trauma. […] S-100b levels were determined using a commercially available luminometric immunoassay kit from Byk-Sangtec Diagnostica GmbH & Co. (Dietzenbach, Germany).

## C[C@@H]([C@@H](O)c1ccc(O)cc1)N1CCC(O)(c2ccccc2)CC1 [CP-101,606, (1S,2S)-1-(4-hydroxyphenyl)-2-(4-hydroxy-4-phenylpiperidin-1-yl)-1-propanol]
  S-100b levels in serum compared to the placebo group: significantly reduced
